Test results taken from patent publication US9708247B2, “Modulators of the eIF2alpha pathway” (The Regents of the University of California, priority 2013, dated 2017).
Entries after “also recorded” stand apart in the source; their conditions may differ.

How the values were obtained:
[1] = test system: global translation; assay: Metabolic labeling (35S-methionine incorporation) in HEK293T cells; assay type: cell-based, human; conditions: 100 nM thapsigargin plus 200 nM ISRIB
Method: HEK293T cells were seeded on 12 well plates, allowed to recover overnight and treated for the indicated times with the indicated compounds. The cells were subsequently switched to media lacking methionine and cysteine supplemented with the indicated compounds and 50 μCi of ^35S-methionine (Perkin Elmer) for 20 min. Cells were lysed by addition of SDS-PAGE loading buffer. Lysates were sonicated and equal amounts were loaded on SDS-PAGE gels (BioRad). The gel was dried and radioactive methionine incorporation was detected by exposure to a phosphor-screen and visualized with a Typhoon 9400 Variable Mode Imager (GE Healthcare).

[2] = test system: contextual fear memory; assay: Contextual fear conditioning; assay type: in vivo, mouse; conditions: vs vehicle
Method: Eight to ten-week-old male C57BL/6J mice were used for behavioral experiments. Food and water were provided ad libitum, and mice were kept on a 12:12 h light/dark cycle (lights on at 08:00 h). All procedures complied with Canadian Council on Animal Care guidelines
Mice were handled for 3 days and thereafter injected daily intraperitoneally with ISRIB (0.25 mg/kg in saline, 1% DMSO) for 4 consecutive days. One hour after the last injection the mice were trained with the protocol, which consisted of a 2-min period of context exploration, followed by a single foot shock of 0.35 mA for 1 s. The mice were returned to their home cage 1 min after the shock. One and 24 h after training, the mice were tested for contextual fear memory by placing the animals in the conditioning context for a 4-min period. The incidence of freezing was scored in 5-s intervals as either “freezing” or “not freezing”. Percent of freezing indicates the number of intervals in which freezing was observed divided by total number of 5-s intervals. Statistical analyses were done by Student's t tests and one-way ANOVA followed by between-group comparisons using Tukey's posthoc test.

[3] = mouse, in vivo, ip, 5 mg/kg
Method: Intra-peritoneal (ip), and intra-venous (iv) routes of administration were performed on 6-7 wk old female CD-1 mice (Harlan Laboratories). Animals received a single, 5 mg/kg dose in groups of three mice/compound/route of administration. […] Blood (80 ul) was collected from the saphenous vein at intervals post-dosing (20 min, 1 h, 3 h, 8 h, 24 h) in EDTA containing collection tubes (Sarstadt CB300) and plasma was prepared for analysis. Compounds were detected by time-of-flight mass spectroscopy.

[4] = Toxicity in mice; assay type: in vivo
[5] = test system: hippocampal-dependent memory; assay: Trace fear conditioning after surgery (postsurgical cognitive dysfunction); assay type: in vivo, mouse; conditions: mice, perioperative administration, postoperative day three
Text: FIG. 26. Experimental design for measuring postsurgical cognitive dysfunction and effects of ISRIB on cognitive function; measurement of memory is a behavioral test using trace fear conditioning (TFC), which aims to establish a permanent memory in animals by using sensorial information; associative learning is presented with a neutral conditioning stimulus, paired with an aversive unconditioning stimulus (e.g. shock); freezing by the animal corresponds to the ability of the animal to retain memory from the context in which it has been trained. Separate cohorts of animals were used to assess inflammatory status 24 h after surgery. Downwards arrows represent injection points. FIG. 27. […] Control animals were given vehicle solution.

[6] = test system: eIF2α (p-Ser51); assay: AlphaScreen SureFire eIF2α(p-Ser51) assay in U2OS cells; assay type: cell-based, human; conditions: U2OS
Method: U2OS cells were plated on 96 well plates and left to recover overnight. Cells were treated with either with 2 μg/ml tunicamycin or 100 nM thapsigargin in the presence or absence of 100 nM ISRIB or with ISRIB alone for the indicated and the level of eIF2α phosphorylation was determined using the AlphaScreen SureFire eIF2α(p-Ser51) Assay kit (Perkin Elmer) following the manufacturer's recommendations. Plates were read in an Envision Xcite Multilabel Reader using the standard Alpha Screen settings.

[7] = test system: RPMI 8226 cells; assay: Multiple myeloma xenograft model (RPMI 8226, BALB/c scid mice); assay type: in vivo, mouse; conditions: 5 mg/kg orally, daily
[8] = test system: CHOP and GADD34 mRNA; assay: qRT-PCR of CHOP and GADD34 mRNA in U2OS cells; assay type: cell-based, human; conditions: 2 μg/ml tunicamycin, 200 nM ISRIB
Method: FIGS. 4A-4B. ISRIB impairs induction of the transcriptional network controlled by ATF4; (FIG. 4A) ER-stress dependent induction of CHOP and GADD34 mRNA is impaired in cells treated with ISRIB; qPCR analysis of total RNA extracted from U2OS cells treated with 2 μg/ml of tunicamycin in the presence or absence of 200 nM ISRIB for the indicated times; mRNA levels for each sample were normalized to GAPDH (N=4); P values are derived from a one tail Student's t-test for unpaired samples; statistical significance: CHOP, P=0.0006 (*); GADD34, P=0.0008 (*); (FIG. 4B) ISRIB blocks CHOP production during ER stress; an immunofluorescence analysis of U2OS cells treated with 100 nM thapsigargin for 2 h in the presence or absence of 200 nM ISRIB is shown; a secondary Alexa Dye 488 anti-mouse antibody and rhodamine-phalloidin were used to visualize CHOP and actin, respectively.
U2OS cells were plated on 96 well plates and allowed to recover overnight. Cells were treated for the indicated times with the indicated compounds, lysed and cDNA was synthesized using the PowerSYBR Green Cells-to-CT kit (Ambion) following the manufacturer's recommendations. The reactions were ran in an Opticon 2 thermal cycler (BioRad) and analyzed with the Opticon Monitor v3 software (BioRad). […]

[9] = test system: auditory fear memory; assay: Cannulation and auditory fear conditioning; assay type: in vivo, rat; conditions: rats, infused into amygdala, vs vehicle
Method: Male Sprague Dawley rats (275-350 g) were used for cannulation as described in Migues et al, 2010 (46). ISRIB (0.05 mg/ml, […]) was infused bilaterally into the amygdala immediately after auditory fear conditioning training. The infusion was performed with a microinjector (28 gauge) connected to a Hamilton syringe with plastic tubing at a rate of 0.4 μl/min. To allow for the solution containing ISRIB to diffuse from the tip of the cannula into the tissue, the microinjector stayed in the cannula for one additional minute. Training protocol for auditory fear conditioning consisted of a 2-min period of context A exploration, followed by one pairing of a tone (2800 Hz, 85 dB, 30 s) with a co-terminating foot shock (0.75 mA, 1 s). Rats were returned to their home cage 1 min after the shock. Test for auditory fear memory consisted of a 2 min acclimatizing period to the context B (pre-CS), followed by tone presentation (CS) (2800 Hz, 85 dB, 30 s). Freezing time was measured and percent of freezing was calculated. At the end of the experiment, cannula placement was checked by examining 50 μm brain sections stained with formal-thionin under a light microscope.

SMILES: O=C(COc1ccc(Cl)cc1)NC1CCC(NC(=O)COc2ccc(Cl)cc2)CC1 (centres unmarked) [ISRIB]
- effect on thapsigargin-induced drop in translation [1]: abolished
- freezing, short-term contextual fear memory ([2]; 1 h after training): No differences were observed
- freezing, long-term contextual fear memory ([2]; 24 h after training, 0.25 mg/kg ip for 4 days, p<0.05): increased freezing
- AUC [3]: 3318 ng·h/mL
- CLt [3]: 8.318 mL/h
- F % [3]: 13.8%
- T½ [3]: 8.43 h
- Vd [3]: 96.0261 mL
- toxicity [4]: no overt toxicity
- memory impairment after surgery (freezing) [5]: mitigated memory impairment after surgery
- effect on eIF2α phosphorylation, compound alone ([6]; no ER stress, 120 min): no effect on eIF2α phosphorylation
- effect on eIF2α phosphorylation upon ER stress ([6]; tunicamycin or thapsigargin plus 100 nM ISRIB): did not block eIF2α phosphorylation
- tumor growth / tumor size vs vehicle (in words) [7]: significant difference in tumor size; also recorded: significant reduction in the rate of tumor growth
- reduction in tumor size at the endpoint of the study ([7]; 26 days of dosing): 50%
- induction of GADD34 and CHOP mRNAs [8]: significantly reduced their induction
- freezing to tone (CS), short-term memory ([9]; 3 h): no difference
- freezing to tone (CS), long-term memory ([9]; 24 h, p<0.05): significant increase
